Measured values reported in patent publication US12577219B2, “Macrolide brefeldin a ester derivatives and use thereof” (OCEAN UNIVERSITY OF CHINA, priority 2019, dated 2026).
≈ marks a conversion by molar mass, not a printed value.

Key:
Kunming breed mice = test: Toxicity test after intraperitoneal administration to mice; type: in vivo; details: ip.; for Organ abnormality at anatomy: anatomy on the 14 th day; for Mental condition of the animals after administration: high and low doses; for Deaths after administration: high and low doses (BFA effective amount conversion), 14 d
Experimental: Objective: Observation of toxic effects of compounds after intraperitoneally administration (ip.) to mice
1) Agents: Compounds disclosed herein were formulated to a suitable concentration.
2) Animals: Kunming breed mice, weight 18-22 g, male. Provided by Jinan Pengyue Laboratory Animal Breeding Co., Ltd. Animal license number: SCXK (Shandong 20140007)
Method: Kunming breed mice, were randomly grouped by weight, 6 mice per group, namely normal control group, BFA high and low dose groups (100 mg/kg and 50 mg/kg, respectively), and high and low dose groups of some compounds disclosed herein (BFA effective amount conversion). […] After 14 d of continuous administration, all the animals were weighed, and the animals were executed to observe whether there were any abnormalities in the organs.

[1] = system: human liver cancer HepG2 cells; test: Cell proliferation assay (CCK-8); type: cell-based; details: HepG2, 72 h
Source text: (§1) CCK-8 method: The CCK-8 method is a highly sensitive, non-radioactive colorimetric assay for the determination of the number of viable cells in cell proliferation or cytotoxicity assays. The orange formazan dye produced by the bioreduction of CCK-8 by intracellular dehydrogenase is soluble in the cell culture medium, and the amount of formazan dye produced is proportional to the number of living cells. The kit used in this method is the tetrazolium salt-WST-8 (2-(2-methoxy-4-nitrophenyl)-3-(4-nitrophenyl)-5-(2,4-disulfophenyl)-2H-tetrazolium monosodium salt) developed by Dojindo Chemical Research Institute (Dojindo), which is capable of being reduced to a water-soluble formazan dye in the presence of the electronic carrier 1-Methoxy PMS.
(§2) Human cervical cancer Hela cells, pancreatic cancer PANC-1cells, esophageal cancer Eca-109 cells, human leukemia K562 cells, human lung cancer A549 cells, human liver cancer HepG2 cells, human gastric cancer MKN-45 cells, human breast cancer MCF7 cells were cultured in DMEM medium containing 10% FBS (fetal bovine serum), 100 U/mL penicillin and 100 μg/ml streptomycin. Hepatocellular carcinoma cells Bel-7402 were cultured in RPMI-1640 medium containing 10% FBS (fetal bovine serum), 100 U/ml penicillin and 100 μg/ml streptomycin. All cells were placed in a cell culture incubator at 37° C. with 5% CO2. Cells fluid was changed every 3-5 days, and after 80% cell fusion, trypsin digestion and passaging were performed to keep the cells in good logarithmic growth phase.
(§3) All the samples to be tested were dissolved in DMSO.
(§4) Cells in logarithmic growth phase were inoculated in 96-well plates with 5000 cells/well respectively, and after 24 h of incubation, samples were added (final concentrations as shown in the table), and biplicate wells were set up for each sample. The amount of solvent of DMSO was not higher than 2%. After 72 h, 10 μL of CCK-8 solution was added to each well and incubated for 1.5˜3 h at 37° C. The OD value at 450 nm was measured on an plate reader. Inhibition rate (%)=(1−[(OD450 dosed well−OD450 blank well)/(OD450 control well−OD450 blank well)])×100%
(§5) The fitted IC50 values were calculated using the log (inhibitor) vs. response—Variable slop analysis method in GraphPad Prism software.

[2] = system: human gastric cancer MKN-45 cells; test: Cell proliferation assay (CCK-8); type: cell-based; details: MKN-45, 72 h
Source text: as §1, §2, §3, §4, §5

[3] = system: human leukemia K562 cells; test: Cell proliferation assay (CCK-8); type: cell-based; details: K562, 72 h
Source text: as §1, §2, §3, §4, §5

[4] = system: human breast cancer MCF7 cells; test: Cell proliferation assay (CCK-8); type: cell-based; details: MCF7, 72 h
Source text: as §1, §2, §3, §4, §5

[5] = system: human lung cancer A549 cells; test: Cell proliferation assay (CCK-8); type: cell-based; details: A549, 72 h
Source text: as §1, §2, §3, §4, §5

[6] = system: Human cervical cancer Hela cells; test: Cell proliferation assay (CCK-8); type: cell-based; details: 72 h
Source text: as §1, §2, §3, §4, §5

[7] = system: pancreatic cancer PANC-1cells; test: Cell proliferation assay (CCK-8); type: cell-based, human; details: PANC-1, 72 h
Source text: as §1, §2, §3, §4, §5

[8] = system: esophageal cancer Eca-109 cells; test: Cell proliferation assay (CCK-8); type: cell-based, human; details: Eca-109, 72 h
Source text: as §1, §2, §3, §4, §5

physchem = details: 37 °C, thermodynamic from solid, x ± s, n = 3
Method: (§6) The term “solubility” refers to the mass of solute dissolved when a solid substance reaches saturation state in 100 g solvent at a certain temperature.
(§7) Methods: Excess BFA and the compounds disclosed herein were added to 10 mL of three solvents, methanol, acetone and 5% DMSO+95% H2O, respectively, and shaken on a shaker at 37° C. at 100 r/min for 24 h. After 24 h, the samples were centrifuged at 15,000 r/min for 15 min to remove the undissolved compounds. The supernatant was filtered using a 0.45 μm membrane filter. The supernatant was appropriately diluted with methanol and contents of the compounds were determined by HPLC method to calculate the solubility.

[9] = Solubility test (shaker 37° C., 24 h, HPLC); details: 37 °C, thermodynamic from solid
Method: as §6, §7

[10] = 5% DMSO + 95% H2O, aqueous with cosolvent or surfactant or cyclodextrin
[11] = acetone, organic solvent or mixture
[12] = methanol, organic solvent or mixture

| IC50 ([1]; Homo sapiens) | IC50 ([2]; Homo sapiens) | IC50 ([3]; Homo sapiens) | IC50 ([4]; Homo sapiens) | IC50 ([5]; Homo sapiens) | IC50 ([6]; Homo sapiens) | IC50 ([7]; Homo sapiens) | IC50 ([8]; Homo sapiens) | Structure (SMILES) | Organ abnormality at anatomy (Kunming breed mice) | Mental condition of the animals after administration (Kunming breed mice) | Deaths after administration (Kunming breed mice) | further results |
| --- | --- | --- | --- | --- | --- | --- | --- | --- | --- | --- | --- | --- |
|  |  |  |  |  |  |  |  | C[C@H]1CCC/C=C/[C@@H]2C[C@H](OC(=O)/C=C/c3ccc(N(C)C)cc3)C[C@H]2[C@H](OC(=O)/C=C/c2ccc(N(C)C)cc2)/C=C/C(=O)O1 [Compound 10c, 4,7-O-bis(4-dimethylaminocinnamic acid)acyl BFA] | no significant abnormality in all organs | good mental condition | no deaths |  |
|  |  |  |  |  |  |  |  | C[C@H]1CCC/C=C/[C@@H]2C[C@H](OC(=O)/C=C/c3cccnc3)C[C@H]2[C@H](O)/C=C/C(=O)O1 [Compound 16a, 7-O-(3-(pyridine-3-yl)acrylic acid)acyl BFA] | no significant abnormality in all organs | good mental condition | no deaths |  |
|  |  |  |  |  |  |  |  | C[C@H]1CCC/C=C/[C@@H]2C[C@H](O)C[C@H]2[C@H](OC(=O)/C=C/c2cccnc2)/C=C/C(=O)O1 [Compound 16b] | no significant abnormality in all organs | good mental condition | no deaths |  |
|  |  |  |  |  |  |  |  | C[C@H]1CCC/C=C/[C@@H]2C[C@H](OC(=O)/C=C/c3cccnc3)C[C@H]2[C@H](OC(=O)/C=C/c2cccnc2)/C=C/C(=O)O1 [Compound 16c] | no significant abnormality in all organs | good mental condition | no deaths |  |
|  |  |  |  |  |  |  |  | C[C@H]1CCC/C=C/[C@@H]2C[C@H](OC(=O)/C=C/c3cnc4ccccc4c3)C[C@H]2[C@H](OC(=O)/C=C/c2cnc3ccccc3c2)/C=C/C(=O)O1 [Compound 17c] |  |  |  | IC50 [1]: 100 to 1000 nM; IC50 [2]: 1000 to 10000 nM; IC50 [3]: 100 to 1000 nM; IC50 [4]: 100 to 1000 nM; IC50 [5]: 1000 to 10000 nM; IC50 [6]: 1000 to 10000 nM; IC50 [7]: 100 to 1000 nM; IC50 [8]: 1000 to 10000 nM |
| 1000 to 10000 nM | 1000 to 10000 nM | 100 to 1000 nM | 100 to 1000 nM | 1000 to 10000 nM | 1000 to 10000 nM | 100 to 1000 nM | 1000 to 10000 nM | C[C@H]1CCC/C=C/[C@@H]2C[C@H](O)C[C@H]2[C@H](OC(=O)/C=C/c2ccccc2)/C=C/C(=O)O1 [Compound B] |  |  |  | solubility at 24 h [9, 10]: 220 ± 160 µg/mL; solubility at 24 h [9, 11]: 9480 ± 3230 µg/mL (≈ 23.1 mM); solubility at 24 h [9, 12]: 9410 ± 1510 µg/mL (≈ 22.9 mM) |
| 1000 to 10000 nM | 1000 to 10000 nM | 1000 to 10000 nM | 1000 to 10000 nM | 1000 to 10000 nM | 1000 to 10000 nM | 1000 to 10000 nM | 1000 to 10000 nM | C[C@H]1CCC/C=C/[C@@H]2C[C@H](OC(=O)/C=C/c3ccccc3)C[C@H]2[C@H](OC(=O)/C=C/c2ccccc2)/C=C/C(=O)O1 [Compound C] |  |  |  | solubility at 24 h [9, 10]: 100 ± 230 µg/mL; solubility at 24 h [9, 11]: 5360 ± 3130 µg/mL (≈ 9.91 mM); solubility at 24 h [9, 12]: 5300 ± 2510 µg/mL (≈ 9.8 mM) |

| Structure (SMILES) | IC50 ([1]; Homo sapiens) | IC50 ([2]; Homo sapiens) | IC50 ([3]; Homo sapiens) | IC50 ([4]; Homo sapiens) | IC50 ([5]; Homo sapiens) | IC50 ([6]; Homo sapiens) | IC50 ([7]; Homo sapiens) | IC50 ([8]; Homo sapiens) | Organ abnormality at anatomy (Kunming breed mice) | Mental condition of the animals after administration (Kunming breed mice) | Deaths after administration (Kunming breed mice) | further results |
| --- | --- | --- | --- | --- | --- | --- | --- | --- | --- | --- | --- | --- |
| C[C@H]1CCC/C=C/[C@@H]2C[C@H](OC(=O)/C=C/c3ccccc3)C[C@H]2[C@H](O)/C=C/C(=O)O1 [Compound A] | 1000 to 10000 nM | 1000 to 10000 nM | 100 to 1000 nM | 100 to 1000 nM | 1000 to 10000 nM | 1000 to 10000 nM | 100 to 1000 nM | 1000 to 10000 nM |  |  |  | solubility at 24 h (physchem; aqueous with cosolvent or surfactant or cyclodextrin, 5% DMSO + 95% H2O): 220 ± 130 µg/mL; solubility at 24 h (physchem; organic solvent or mixture, Acetone): 9460 ± 1260 µg/mL (≈ 23 mM); solubility at 24 h (physchem; organic solvent or mixture, Methanol): 9480 ± 1010 µg/mL (≈ 23.1 mM) |
